Legend:
Type in all cases: functional
Klebsiella pneumoniae [1] = assay: Antibacterial activity against Klebsiella pneumoniae isolate Kp4614 in presence of clavulanic acid
Klebsiella pneumoniae [2] = assay: Antibacterial activity against Klebsiella pneumoniae Kp3799 transconjugant harboring IncL/M plasmid and blaIMP-4-qacG2-aacA4-catB3 array by Etest method in presence of clavulanic acid
Klebsiella oxytoca [3] = assay: Antibacterial activity against Klebsiella oxytoca Ko0426 transconjugant harboring IncL/M plasmid and blaIMP-4-qacG2-aacA4-catB3 array by Etest method in presence of clavulanic acid
Escherichia coli [4] = assay: Antibacterial activity against Escherichia coli isolate Ec211 harboring IncA/C plasmid and blaIMP-4-qacG2-aacA4-catB3 array by Etest method in presence of clavulanic acid
Escherichia coli [5] = assay: Antibacterial activity against Escherichia coli isolate Ec221 harboring IncA/C plasmid and blaIMP-4-qacG2-aacA4-catB3 array by Etest method in presence of clavulanic acid
Klebsiella pneumoniae [6] = assay: Antibacterial activity against Klebsiella pneumoniae isolate Kp2730 harboring IncL/M plasmid and blaIMP-4-qacG2-aacA4-catB3 and dfrA12-orfF-aadA2 arrays by Etest method in presence of clavulanic acid
Acinetobacter baumannii = assay: Antibacterial activity against Acinetobacter baumannii isolate AbN450 harboring blaIMP-4-qacG2-aacA4-catB3 array by Etest method in presence of clavulanic acid
Citrobacter amalonaticus [7] = assay: Antibacterial activity against Citrobacter amalonaticus isolate Ca3927 harboring IncL/M plasmid and blaIMP-4-qacG2-aacA4-catB3 array by Etest method in presence of clavulanic acid
Enterobacter cloacae [8] = assay: Antibacterial activity against Enterobacter cloacae El3518 transconjugant harboring IncL/M plasmid and blaIMP-4-qacG2-aacA4-catB3 array by Etest method in presence of clavulanic acid
Morganella morganii [9] = assay: Antibacterial activity against Morganella morganii Mm1229 transconjugant harboring IncL/M plasmid and blaIMP-4-qacG2-aacA4-catB3 array by Etest method in presence of clavulanic acid
Citrobacter freundii = assay: Antibacterial activity against Citrobacter freundii isolate Cf1614 harboring IncL/M plasmid and blaIMP-4-qacG2-aacA4-catB3 array by Etest method in presence of clavulanic acid
Serratia marcescens [10] = assay: Antibacterial activity against Serratia marcescens isolate Sm2723 harboring IncL/M plasmid and blaIMP-4-qacG2-aacA4-catB3 array by Etest method in presence of clavulanic acid
Escherichia coli [11] = assay: Antibacterial activity against Escherichia coli Ec9381 transconjugant harboring IncL/M plasmid and blaIMP-4-qacG2-aacA4-catB3 array by Etest method in presence of clavulanic acid
Serratia marcescens [12] = assay: Antibacterial activity against Serratia marcescens isolate Sm211 harboring IncA/C plasmid and blaIMP-4-qacG2-aacA4-catB3 array by Etest method in presence of clavulanic acid
Citrobacter amalonaticus [13] = assay: Antibacterial activity against Citrobacter amalonaticus isolate Ca1614 harboring IncL/M plasmid and blaIMP-4-qacG2-aacA4-catB3 array by Etest method in presence of clavulanic acid
Klebsiella pneumoniae [14] = assay: Antibacterial activity against Klebsiella pneumoniae isolate Kp211 harboring IncA/C plasmid and blaIMP-4-qacG2-aacA4-catB3 array by Etest method in presence of clavulanic acid
Acinetobacter = assay: Antibacterial activity against Acinetobacter isolate A74510 harboring blaIMP-4-qacG2-aacA4-catB3 array by Etest method in presence of clavulanic acid
Enterobacter cloacae [15] = assay: Antibacterial activity against Enterobacter cloacae isolate El3280 harboring IncL/M plasmid and blaIMP-4-qacG2-aacA4-catB3 array by Etest method in presence of clavulanic acid
Klebsiella pneumoniae [16] = assay: Antibacterial activity against Klebsiella pneumoniae isolate Kp149 harboring IncA/C plasmid and blaIMP-4-qacG2-aacA4-catB3 array by Etest method in presence of clavulanic acid
Escherichia coli [17] = assay: Antibacterial activity against Escherichia coli isolate Ec158 harboring IncA/C plasmid and blaIMP-4-qacG2-aacA4-catB3 array by Etest method in presence of clavulanic acid
Morganella morganii [18] = assay: Antibacterial activity against Morganella morganii isolate Mm38009 harboring IncL/M plasmid and blaIMP-4-qacG2-aacA4-catB3 array by Etest method in presence of clavulanic acid
Klebsiella pneumoniae [19] = assay: Antibacterial activity against Klebsiella pneumoniae isolate Kp38045 harboring IncL/M plasmid and blaIMP-4-qacG2-aacA4-catB3 array by Etest method in presence of clavulanic acid
Enterobacter cloacae [20] = assay: Antibacterial activity against Enterobacter cloacae El3799 transconjugant harboring IncL/M plasmid and blaIMP-4-qacG2-aacA4-catB3 array by Etest method in presence of clavulanic acid
Klebsiella pneumoniae [21] = assay: Antibacterial activity against Klebsiella pneumoniae isolate Kp1239 harboring IncL/M plasmid and blaIMP-4-qacG2-aacA4-catB3 array by Etest method in presence of clavulanic acid
Serratia marcescens [22] = assay: Antibacterial activity against Serratia marcescens isolate Sm220 harboring IncA/C plasmid and blaIMP-4-qacG2-aacA4-catB3 array by Etest method in presence of clavulanic acid
Klebsiella oxytoca [23] = assay: Antibacterial activity against Klebsiella oxytoca Ko1156 transconjugant harboring IncL/M plasmid and blaIMP-4-qacG2-aacA4-catB3 array by Etest method in presence of clavulanic acid
Klebsiella pneumoniae [24] = assay: Antibacterial activity against Klebsiella pneumoniae isolate Kp266 harboring IncA/C plasmid and blaIMP-4-qacG2-aacA4-catB3 array by Etest method in presence of clavulanic acid
Enterobacter cloacae [25] = assay: Antibacterial activity against Enterobacter cloacae isolate El216 harboring IncA/C plasmid and blaIMP-4-qacG2-aacA4-catB3 array by Etest method in presence of clavulanic acid
Klebsiella pneumoniae [26] = assay: Antibacterial activity against Klebsiella pneumoniae Kp2730 transconjugant harboring IncL/M plasmid and blaIMP-4-qacG2-aacA4-catB3 and dfrA12-orfF-aadA2 arrays by Etest method in presence of clavulanic acid
Klebsiella pneumoniae [27] = assay: Antibacterial activity against Klebsiella pneumoniae Kp1239 transconjugant harboring IncL/M plasmid and blaIMP-4-qacG2-aacA4-catB3 array by Etest method in presence of clavulanic acid
Serratia marcescens [28] = assay: Antibacterial activity against Serratia marcescens isolate Sm265 harboring IncA/C plasmid and blaIMP-4-qacG2-aacA4-catB3 array by Etest method in presence of clavulanic acid
Morganella morganii [29] = assay: Antibacterial activity against Morganella morganii Mm38009 transconjugant harboring IncL/M plasmid and blaIMP-4-qacG2-aacA4-catB3 array by Etest method in presence of clavulanic acid
Morganella morganii [30] = assay: Antibacterial activity against Morganella morganii isolate Mm1229 harboring IncL/M plasmid and blaIMP-4-qacG2-aacA4-catB3 array by Etest method in presence of clavulanic acid
Klebsiella pneumoniae [31] = assay: Antibacterial activity against Klebsiella pneumoniae Kp38045 transconjugant harboring IncL/M plasmid and blaIMP-4-qacG2-aacA4-catB3 array by Etest method in presence of clavulanic acid
Serratia marcescens [32] = assay: Antibacterial activity against Serratia marcescens Sm265 transconjugant harboring IncA/C plasmid and blaIMP-4-qacG2-aacA4-catB3 array by Etest method in presence of clavulanic acid
Serratia marcescens [33] = assay: Antibacterial activity against Serratia marcescens Sm2723 transconjugant harboring IncL/M plasmid and blaIMP-4-qacG2-aacA4-catB3 array by Etest method in presence of clavulanic acid
Klebsiella pneumoniae [34] = assay: Antibacterial activity against Klebsiella pneumoniae isolate Kp3799 harboring IncL/M plasmid and blaIMP-4-qacG2-aacA4-catB3 array by Etest method in presence of clavulanic acid

Measured: MIC

CC1(C)S[C@@H]2[C@H](NC(=O)[C@H](N)c3ccc(O)cc3)C(=O)N2[C@H]1C(=O)O [AMOXICILLIN]
> 16 µg/mL: all assays above
